Assay results from patent US20240051997A1, “SAP AND PEPTIDOMIMETIC COMPOSITIONS FOR REDUCING SYMPTOMS OF INFLAMMATION” (Arch Biosurgery, Inc., priority 2018, published 2024).

Tested on: Human THP-1 cells
Test: Cytokine release by THP-1 cells stimulated with RADA-16 or LPS (PROTEOME PROFILER Array)
Type: cell-based
Description: The anti-inflammatory effect of a SAP was examined using an in vitro assay to assess cytokine release by human THP-1 cells in the presence of SAP. Measurement of THP-1 cell activation in response to antigen was assessed by cytokine release.
Human THP-1 cells in culture media (1×10^6 cells in 1 ml of Culture medium) were exposed to the self-assembling peptide RADARADARADARADA (“RADA-16”; SEQ ID NO: 1), at a concentration of 1 μg/well, 10 μg/well, or 100 μg/well.
Human THP-1 cells in the absence of RADA-16 were used as a control to assess the baseline level of cytokine production in “resting” non-actived THP-1 cells.
To assess cytokine release upon THP-1 cell activation, lipopolysaccharides (LPS) from Salmonella typhimurium (catalog no. L-7261; Sigma-Aldrich, St. Louis, MO) were added to THP-1 cells, at a concentration of 1 μg/ml.
The release of cytokines in response to exposure of THP-1 cells to RADA-16 (SEQ ID NO: 1) or LPS was measured using the PROTEOME PROFILER™ Array kit, commercially available as a test strip kit for detection of cytokines in solution (R&D Systems, Inc., Catalog Number ARY005). The assay was carried out according to the manufacturer's guide lines.

Sequence: RADARADARADARADA [RADA-16, self-assembling peptide]
- C5a (Complement Component 5a) release (1 mcg (1 μg/well) RADA-16): 0
- CD40 Ligand (CD154) release (1 mcg (1 μg/well) RADA-16): 0
- G-CSF (CSF −, CSF-3) release (1 mcg (1 μg/well) RADA-16): 0
- GM-CSF (CSF |, CSF-2) release (1 mcg (1 μg/well) RADA-16): 0
- GRO | (CXCL1) release (1 mcg (1 μg/well) RADA-16): 0
- I-309 (CCL1) release (1 mcg (1 μg/well) RADA-16): 0
- I-TAC (CXCL11) release (1 mcg (1 μg/well) RADA-16): 0
- IFN-• (Type II IFN) release (1 mcg (1 μg/well) RADA-16): 0
- IL-1 alpha (IL-1F1) release (1 mcg (1 μg/well) RADA-16): 0
- IL-1 beta (IL-1F2) release (1 mcg (1 μg/well) RADA-16): 0
- IL-1ra (IL-1F3) release (1 mcg (1 μg/well) RADA-16): 22.59
- IL-2 release (1 mcg (1 μg/well) RADA-16): 0
- IL-4 release (1 mcg (1 μg/well) RADA-16): 0
- IL-5 release (1 mcg (1 μg/well) RADA-16): 0
- IL-6 release (1 mcg (1 μg/well) RADA-16): 0
- IL-8 (CXCL8) release (1 mcg (1 μg/well) RADA-16): 0
- IL-10 release (1 mcg (1 μg/well) RADA-16): 0
- IL-12 p 70 release (1 mcg (1 μg/well) RADA-16): 0
- IL-13 release (1 mcg (1 μg/well) RADA-16): 0
- IL-16 (LCF) release (1 mcg (1 μg/well) RADA-16): 0
- IL-17E release (1 mcg (1 μg/well) RADA-16): 0
- IL-17 release (1 mcg (1 μg/well) RADA-16): 0
- IL-23 release (1 mcg (1 μg/well) RADA-16): 0
- IL-27 release (1 mcg (1 μg/well) RADA-16): 0
- IL-32 release (1 mcg (1 μg/well) RADA-16): 0
- IP-10 (CXCL10) release (1 mcg (1 μg/well) RADA-16): 0
- MCP-1 (CCL2) release (1 mcg (1 μg/well) RADA-16): 0
- MIP-1 | (CCL3) release (1 mcg (1 μg/well) RADA-16): 0
- MIP-1− (CCL4) release (1 mcg (1 μg/well) RADA-16): 0
- SDF-1 (CXCL12) release (1 mcg (1 μg/well) RADA-16): 0
- TNF- | (TNFSF2) release (1 mcg (1 μg/well) RADA-16): 0
- sICAM-1 (CD54) release (1 mcg (1 μg/well) RADA-16): 0
- sTREM-1 release (1 mcg (1 μg/well) RADA-16): 0
- C5a (Complement Component 5a) release (10 mcg (10 μg/well) RADA-16): 0
- CD40 Ligand (CD154) release (10 mcg (10 μg/well) RADA-16): 0
- G-CSF (CSF −, CSF-3) release (10 mcg (10 μg/well) RADA-16): 0
- GM-CSF (CSF |, CSF-2) release (10 mcg (10 μg/well) RADA-16): 0
- GRO | (CXCL1) release (10 mcg (10 μg/well) RADA-16): 0
- I-309 (CCL1) release (10 mcg (10 μg/well) RADA-16): 0
- I-TAC (CXCL11) release (10 mcg (10 μg/well) RADA-16): 0
- IFN-• (Type II IFN) release (10 mcg (10 μg/well) RADA-16): 0
- IL-1 alpha (IL-1F1) release (10 mcg (10 μg/well) RADA-16): 0
- IL-1 beta (IL-1F2) release (10 mcg (10 μg/well) RADA-16): 0
- IL-1ra (IL-1F3) release (10 mcg (10 μg/well) RADA-16): 0
- IL-2 release (10 mcg (10 μg/well) RADA-16): 0
- IL-4 release (10 mcg (10 μg/well) RADA-16): 0
- IL-5 release (10 mcg (10 μg/well) RADA-16): 0
- IL-6 release (10 mcg (10 μg/well) RADA-16): 0
- IL-8 (CXCL8) release (10 mcg (10 μg/well) RADA-16): 0
- IL-10 release (10 mcg (10 μg/well) RADA-16): 0
- IL-12 p 70 release (10 mcg (10 μg/well) RADA-16): 0
- IL-13 release (10 mcg (10 μg/well) RADA-16): 0
- IL-16 (LCF) release (10 mcg (10 μg/well) RADA-16): 0
- IL-17E release (10 mcg (10 μg/well) RADA-16): 0
- IL-17 release (10 mcg (10 μg/well) RADA-16): 0
- IL-23 release (10 mcg (10 μg/well) RADA-16): 0
- IL-27 release (10 mcg (10 μg/well) RADA-16): 0
- IL-32 release (10 mcg (10 μg/well) RADA-16): 0
- IP-10 (CXCL10) release (10 mcg (10 μg/well) RADA-16): 0
- MCP-1 (CCL2) release (10 mcg (10 μg/well) RADA-16): 0
- MIP-1 | (CCL3) release (10 mcg (10 μg/well) RADA-16): 0
- MIP-1− (CCL4) release (10 mcg (10 μg/well) RADA-16): 0
- SDF-1 (CXCL12) release (10 mcg (10 μg/well) RADA-16): 0
- TNF- | (TNFSF2) release (10 mcg (10 μg/well) RADA-16): 0
- sICAM-1 (CD54) release (10 mcg (10 μg/well) RADA-16): 0
- sTREM-1 release (10 mcg (10 μg/well) RADA-16): 0
- C5a (Complement Component 5a) release (100 mcg (100 μg/well) RADA-16): 0
- CD40 Ligand (CD154) release (100 mcg (100 μg/well) RADA-16): 0
- G-CSF (CSF −, CSF-3) release (100 mcg (100 μg/well) RADA-16): 0
- GM-CSF (CSF |, CSF-2) release (100 mcg (100 μg/well) RADA-16): 0
- GRO | (CXCL1) release (100 mcg (100 μg/well) RADA-16): 0
- I-309 (CCL1) release (100 mcg (100 μg/well) RADA-16): 0
- I-TAC (CXCL11) release (100 mcg (100 μg/well) RADA-16): 0
- IFN-• (Type II IFN) release (100 mcg (100 μg/well) RADA-16): 0
- IL-1 alpha (IL-1F1) release (100 mcg (100 μg/well) RADA-16): 0
- IL-1 beta (IL-1F2) release (100 mcg (100 μg/well) RADA-16): 0
- IL-1ra (IL-1F3) release (100 mcg (100 μg/well) RADA-16): 0
- IL-2 release (100 mcg (100 μg/well) RADA-16): 0
- IL-4 release (100 mcg (100 μg/well) RADA-16): 0
- IL-5 release (100 mcg (100 μg/well) RADA-16): 0
- IL-6 release (100 mcg (100 μg/well) RADA-16): 0
- IL-8 (CXCL8) release (100 mcg (100 μg/well) RADA-16): 0
- IL-10 release (100 mcg (100 μg/well) RADA-16): 0
- IL-12 p 70 release (100 mcg (100 μg/well) RADA-16): 0
- IL-13 release (100 mcg (100 μg/well) RADA-16): 0
- IL-16 (LCF) release (100 mcg (100 μg/well) RADA-16): 0
- IL-17E release (100 mcg (100 μg/well) RADA-16): 0
- IL-17 release (100 mcg (100 μg/well) RADA-16): 0
- IL-23 release (100 mcg (100 μg/well) RADA-16): 0
- IL-27 release (100 mcg (100 μg/well) RADA-16): 0
- IL-32 release (100 mcg (100 μg/well) RADA-16): 0
- IP-10 (CXCL10) release (100 mcg (100 μg/well) RADA-16): 0
- MCP-1 (CCL2) release (100 mcg (100 μg/well) RADA-16): 0
- MIP-1 | (CCL3) release (100 mcg (100 μg/well) RADA-16): 0
- MIP-1− (CCL4) release (100 mcg (100 μg/well) RADA-16): 0
- SDF-1 (CXCL12) release (100 mcg (100 μg/well) RADA-16): 0
- TNF- | (TNFSF2) release (100 mcg (100 μg/well) RADA-16): 0
- sICAM-1 (CD54) release (100 mcg (100 μg/well) RADA-16): 0
- sTREM-1 release (100 mcg (100 μg/well) RADA-16): 0
- induction of cytokine release relative to baseline (resting THP-1 cells, 1, 10 or 100 μg/well, no LPS): did not induce cytokine release beyond baseline levels
